Values of other authors in patent publication US20050154020A1, “4-Aryl piperidines” (Synaptic Pharmaceutical Corporation, priority 2004, published 2005).

Experiments:
MCH1 [1] = biological target: T1, MCH1 (Rattus norvegicus, UniProt P97639)
T1 construct: from tissue; host or cells: whole living rat (in vivo behavioural model)

MCH1 [2] = biological target: T1, MCH1; remark: listed apart in the source
MCH1 [3] = biological target: T2, MCH1 (Cavia porcellus, UniProt H0VKT7)
T2 construct: from tissue; host or cells: whole living guinea pig (in vivo behavioural model)
T2 sequence (H0VKT7 1-355): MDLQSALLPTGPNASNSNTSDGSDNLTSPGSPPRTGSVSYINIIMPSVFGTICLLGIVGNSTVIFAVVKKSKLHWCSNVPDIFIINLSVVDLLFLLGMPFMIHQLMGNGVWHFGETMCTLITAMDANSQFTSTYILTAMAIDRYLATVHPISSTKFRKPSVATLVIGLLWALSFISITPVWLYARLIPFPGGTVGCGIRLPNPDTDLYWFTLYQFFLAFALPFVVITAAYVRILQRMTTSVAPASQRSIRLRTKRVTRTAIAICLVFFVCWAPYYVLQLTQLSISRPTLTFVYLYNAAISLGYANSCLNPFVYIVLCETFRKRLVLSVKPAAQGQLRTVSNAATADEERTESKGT

T1 sequence (P97639 whole entry): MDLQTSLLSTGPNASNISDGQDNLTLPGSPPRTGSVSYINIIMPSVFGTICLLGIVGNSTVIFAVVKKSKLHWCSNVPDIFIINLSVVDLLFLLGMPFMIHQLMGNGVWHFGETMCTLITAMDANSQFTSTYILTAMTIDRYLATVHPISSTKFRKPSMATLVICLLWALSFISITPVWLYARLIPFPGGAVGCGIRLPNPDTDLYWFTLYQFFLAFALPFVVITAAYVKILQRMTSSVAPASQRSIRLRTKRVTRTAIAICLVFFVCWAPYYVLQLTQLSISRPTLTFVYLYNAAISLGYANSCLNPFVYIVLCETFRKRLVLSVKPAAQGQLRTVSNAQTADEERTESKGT

## COCC1=C(C(=O)OC)[C@H](c2ccc(F)c(F)c2)N(C(=O)NCCCN2CCC(c3cccc(NC(C)=O)c3)CC2)C(=O)N1 [SNAP-7941]
MCH1 [1]
  effect in rat forced-swim test (model of depression/anxiety): effects similar to clinically used antidepressants and anxiolytics
MCH1 [2]
  effect in rat social interaction test (model of depression/anxiety): effects similar to clinically used antidepressants and anxiolytics
MCH1 [3]
  effect in guinea pig maternal-separation vocalization test (model of depression/anxiety): effects similar to clinically used antidepressants and anxiolytics
